# Results from article PMC6120666 (The EMBO Journal, 2018).
# What was measured:
# recombinant RIPK3 = target: T1, recombinant RIPK3 (Homo sapiens, UniProt Q9Y572); assay: RIPK3 ADPGlo kinase assay; format: biochemical; conditions: concentrations up to 1 µM
# T1 construct: made in house
# Protocol: Cell viability was determined using CellTiter‐Glo assay (Promega). […] Kinase activities were determined using ADPGlo assay (Promega). • Structure of the active conformation of RIPK2 kinase domain in complex with AMP‐PNP (PDB ID: 5AR3). Figure depicts locations of the adenine and deep pockets. […] Key residues discussed in the text are shown as sticks (Lys/Glu Glu‐in bond—bottom left, catalytic Asp residues (Asp146/Asp164)—bottom right, R‐spine—right). P‐loop of CSLP18 structure is shown in yellow. Structured segment of activation segment (AS) observed in active conformation structures is shown in red. • Structure of RIPK2 kinase domain (gray ribbons) in complex with CSLP18 (orange) (PDB ID 6FU5). Sticks are shown for residues in the vicinity of the cavity surrounding the key inhibitor position R1. A 2Fo‐Fc electron density map contoured at 1 sigma is shown for the inhibitor and the residues lining the key region around inhibitor R^1 position. • Molecular docking model of RIPK2 kinase domain in complex with CSLP37 (yellow) based on RIPK2/CSLP18 structure (Fig 3D). […] Data information: Data in (A–C, G) represent the mean ± SEM of three independent experiments. **P < 0.01. Two‐way ANOVA was used to determine statistical significance. […]
# [1] = target: T2, proteins of U2OS cell lysate (Homo sapiens, UniProt O00159); assay: Drug affinity chromatography with c-ponatinib and LC-MS/MS (ponatinib interactome); format: binding
# T2 construct: Proteins enriched by c-ponatinib from U2OS cell lysate; endogenous in cells; host or cells: U2OS cell lysate
# Protocol: (§1) Drug affinity chromatography
# (§2) U2OS cells were grown until approximately 80% confluent before being pelleted and washed with PBS. Cell pellets were subsequently lysed in buffer A (50 mM Tris pH 7.5, 0.8% v/v NP-40, 5% v/v glycerol, 1.5 mM MgCl2, 100 mM NaCl, 25 mM NaF, 1 mM Na3VO4, 1 mM PMSF, 1mM DTT, 10 μg/mL TLCK, 1 μg/ml Leupeptin, 1 μg/ml Aprotinin, 1 μg/ml soy bean trypsin) and lysates prepared […]
# (§3) concentration was determined and lysates stored at -80 °C.
# (§4) Briefly, 100 μl of bead slurry (50% in isopropanol) were used for each pulldown experiment. Beads were washed with DMSO (3 × 500 μl), and resuspended in DMSO (50 μl), to which the amine (0.025 μmol) and triethylamine (0.75 μl) were added. The beads were incubated at room temperature for 16 h, and depletion of free amine from the supernatant was determined by LC-MS analysis. Ethanolamine (2.5 μl) was then added to block any unreacted NHS sites, and the beads incubated for a further 16 h. Derivatized beads were then washed with DMSO (3 × 500 μl), buffer A (3 × 1 ml), and incubated with cell lysates (2 mg of protein per pulldown, at 6 […]
# (§5) Beads and treated lysates were incubated for 2 h at 4 °C before washing with buffer A (5 ml), Buffer B (50 mM HEPES pH 7.5, 100 mM NaCl, 500 μM EDTA, 2.5 ml), and eluted with formic acid (100 mM, 250 μl). Samples were neutralized with triethylammoniumbicarbonate (TEAB, 1M, 62.5 μl) and stored at -20 °C until preparation for proteomic analysis.
# (§6) Samples were reduced with DTT (10 mM final concentration) for 30 min at room temperature, alkylated with iodoacetamide (55 mM final concentration) for 30 min at room temperature, diluted to 300 μl with TEAB, and incubated with trypsin (6 μl, 0.2 mg/ml) overnight at 37 °C. The digests were desalted using SEPAC lite columns (Waters), eluted with 69 % v/v MeCN, 0.1 % v/v FA in H2O (1 ml) and dried in vacuo. Dried peptides were stored at -20 °C before resuspension in 2 % v/v MeCN, 1 % v/v FA in H2O (20 μl) for LC-MS/MS analysis.
# (§7) LC-MS/MS data acquisition
# (§8) Mass spectrometry data was acquired at the Discovery Proteomics Facility (University of Oxford).
# (§9) Digested samples were analyzed by nano-UPLC–MS/MS using a Dionex Ultimate 3000 nano UPLC with EASY spray column (75 μm × 500 mm, 2 μm particle size, Thermo Fisher Scientific) with a 60 min gradient of 0.1 % (v/v) formic acid in 5 % (v/v) DMSO to 0.1 % (v/v) formic acid with 35 % (v/v) acetonitrile in 5 % (v/v) DMSO at a flow rate of approximately 250 nl min−1 (600 bar per 40 °C column temperature). Mass spectrometry data was acquired either with an Orbitrap Q Exactive (Survey scans acquired at a resolution of 70,000 @ 200m/z and the 15 most abundant precursors were selected for HCD fragmentation), or an Orbitrap Q Exactive High Field (HF) instrument (survey scans were […]
# [2] = target: T3, proteins of U2OS cell lysate (Homo sapiens, UniProt P13073); assay: as above; format: binding
# T3 construct: Proteins enriched by c-ponatinib from U2OS cell lysate; endogenous in cells; host or cells: U2OS cell lysate
# Protocol: as §1, §2, §3, §4, §5, §6, §7, §8, §9
# [3] = target: T4, proteins of U2OS cell lysate (Homo sapiens, UniProt P39656); assay: as above; format: binding
# T4 construct: Proteins enriched by c-ponatinib from U2OS cell lysate; endogenous in cells; host or cells: U2OS cell lysate
# Protocol: as §1, §2, §3, §4, §5, §6, §7, §8, §9
# [4] = target: T5, proteins of U2OS cell lysate (Homo sapiens, UniProt P48643); assay: as above; format: binding
# T5 construct: Proteins enriched by c-ponatinib from U2OS cell lysate; endogenous in cells; host or cells: U2OS cell lysate
# Protocol: as §1, §2, §3, §4, §5, §6, §7, §8, §9
# [5] = target: T6, proteins of U2OS cell lysate (Homo sapiens, UniProt P62263); assay: as above; format: binding
# T6 construct: Proteins enriched by c-ponatinib from U2OS cell lysate; endogenous in cells; host or cells: U2OS cell lysate
# Protocol: as §1, §2, §3, §4, §5, §6, §7, §8, §9
# [6] = target: T7, proteins of U2OS cell lysate (Homo sapiens, UniProt P62805); assay: as above; format: binding
# T7 construct: Proteins enriched by c-ponatinib from U2OS cell lysate; endogenous in cells; host or cells: U2OS cell lysate
# Protocol: as §1, §2, §3, §4, §5, §6, §7, §8, §9
# [7] = target: T8, proteins of U2OS cell lysate (Homo sapiens, UniProt Q99613); assay: as above; format: binding
# T8 construct: Proteins enriched by c-ponatinib from U2OS cell lysate; endogenous in cells; host or cells: U2OS cell lysate
# Protocol: as §1, §2, §3, §4, §5, §6, §7, §8, §9
# T3 sequence (P13073 23-169): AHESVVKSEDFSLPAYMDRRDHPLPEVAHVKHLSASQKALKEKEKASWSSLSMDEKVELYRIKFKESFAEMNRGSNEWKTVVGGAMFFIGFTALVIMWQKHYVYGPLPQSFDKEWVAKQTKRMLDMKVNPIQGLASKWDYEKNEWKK
# T5 sequence (P48643 whole entry): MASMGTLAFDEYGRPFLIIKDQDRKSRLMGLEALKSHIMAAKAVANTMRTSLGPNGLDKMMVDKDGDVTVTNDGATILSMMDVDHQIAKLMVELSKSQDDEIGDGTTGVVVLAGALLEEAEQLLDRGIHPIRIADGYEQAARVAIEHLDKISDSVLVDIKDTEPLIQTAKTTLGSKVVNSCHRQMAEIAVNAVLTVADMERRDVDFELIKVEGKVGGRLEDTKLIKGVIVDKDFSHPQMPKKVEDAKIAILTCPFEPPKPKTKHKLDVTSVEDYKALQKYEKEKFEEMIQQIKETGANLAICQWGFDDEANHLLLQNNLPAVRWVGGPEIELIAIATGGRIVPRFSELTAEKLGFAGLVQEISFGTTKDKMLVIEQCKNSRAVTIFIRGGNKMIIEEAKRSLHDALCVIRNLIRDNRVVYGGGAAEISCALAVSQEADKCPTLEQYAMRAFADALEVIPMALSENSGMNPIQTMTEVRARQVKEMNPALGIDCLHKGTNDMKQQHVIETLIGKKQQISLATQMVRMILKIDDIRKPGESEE
# T8 sequence (Q99613 whole entry): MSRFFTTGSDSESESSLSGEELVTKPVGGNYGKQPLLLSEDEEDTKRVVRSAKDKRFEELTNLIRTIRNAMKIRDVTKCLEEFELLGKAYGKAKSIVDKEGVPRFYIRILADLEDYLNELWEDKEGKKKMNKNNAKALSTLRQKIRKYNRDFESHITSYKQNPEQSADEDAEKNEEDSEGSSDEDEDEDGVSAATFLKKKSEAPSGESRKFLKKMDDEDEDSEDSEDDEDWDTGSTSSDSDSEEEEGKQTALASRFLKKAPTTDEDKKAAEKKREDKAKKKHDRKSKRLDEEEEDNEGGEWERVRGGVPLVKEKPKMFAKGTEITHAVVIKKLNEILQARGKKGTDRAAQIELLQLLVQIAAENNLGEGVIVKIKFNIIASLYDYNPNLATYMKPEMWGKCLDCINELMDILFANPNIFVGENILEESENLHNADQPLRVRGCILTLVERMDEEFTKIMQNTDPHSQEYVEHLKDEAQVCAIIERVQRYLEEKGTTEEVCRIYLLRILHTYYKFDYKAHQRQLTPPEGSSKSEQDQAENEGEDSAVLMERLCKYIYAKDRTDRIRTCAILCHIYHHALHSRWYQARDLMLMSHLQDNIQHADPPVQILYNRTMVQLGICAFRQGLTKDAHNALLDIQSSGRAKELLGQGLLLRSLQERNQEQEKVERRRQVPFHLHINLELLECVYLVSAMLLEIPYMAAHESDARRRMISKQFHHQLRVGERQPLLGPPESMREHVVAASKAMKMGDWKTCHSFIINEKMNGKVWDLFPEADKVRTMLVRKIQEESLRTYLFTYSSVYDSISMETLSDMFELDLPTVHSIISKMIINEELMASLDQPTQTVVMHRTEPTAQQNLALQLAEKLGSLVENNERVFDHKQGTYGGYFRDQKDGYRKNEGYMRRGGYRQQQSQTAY
# T1 sequence (Q9Y572 whole entry, species assumed): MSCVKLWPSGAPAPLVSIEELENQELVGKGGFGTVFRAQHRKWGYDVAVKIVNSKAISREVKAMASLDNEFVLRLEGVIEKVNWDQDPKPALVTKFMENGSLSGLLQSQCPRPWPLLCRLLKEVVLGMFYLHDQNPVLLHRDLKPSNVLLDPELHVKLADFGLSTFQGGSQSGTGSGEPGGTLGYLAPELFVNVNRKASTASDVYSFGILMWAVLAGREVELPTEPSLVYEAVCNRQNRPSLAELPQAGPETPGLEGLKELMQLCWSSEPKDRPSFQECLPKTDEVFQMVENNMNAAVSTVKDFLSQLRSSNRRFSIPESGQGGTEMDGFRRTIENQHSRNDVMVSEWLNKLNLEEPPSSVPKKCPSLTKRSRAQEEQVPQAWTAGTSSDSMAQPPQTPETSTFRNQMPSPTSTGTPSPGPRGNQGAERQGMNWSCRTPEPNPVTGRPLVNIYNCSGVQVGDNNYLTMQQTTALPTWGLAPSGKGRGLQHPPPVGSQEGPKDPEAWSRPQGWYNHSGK
# T4 sequence (P39656 43-456): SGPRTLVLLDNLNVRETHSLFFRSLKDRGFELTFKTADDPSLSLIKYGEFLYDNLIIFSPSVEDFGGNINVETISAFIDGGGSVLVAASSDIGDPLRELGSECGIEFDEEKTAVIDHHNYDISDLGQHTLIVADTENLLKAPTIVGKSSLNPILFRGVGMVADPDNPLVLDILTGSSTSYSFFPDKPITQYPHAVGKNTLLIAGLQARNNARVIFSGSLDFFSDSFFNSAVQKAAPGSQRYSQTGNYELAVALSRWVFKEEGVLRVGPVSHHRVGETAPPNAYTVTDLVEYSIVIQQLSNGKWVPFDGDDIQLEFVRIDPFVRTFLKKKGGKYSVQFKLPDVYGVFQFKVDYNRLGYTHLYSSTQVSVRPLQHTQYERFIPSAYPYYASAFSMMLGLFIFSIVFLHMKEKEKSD
# T2 sequence (O00159 whole entry): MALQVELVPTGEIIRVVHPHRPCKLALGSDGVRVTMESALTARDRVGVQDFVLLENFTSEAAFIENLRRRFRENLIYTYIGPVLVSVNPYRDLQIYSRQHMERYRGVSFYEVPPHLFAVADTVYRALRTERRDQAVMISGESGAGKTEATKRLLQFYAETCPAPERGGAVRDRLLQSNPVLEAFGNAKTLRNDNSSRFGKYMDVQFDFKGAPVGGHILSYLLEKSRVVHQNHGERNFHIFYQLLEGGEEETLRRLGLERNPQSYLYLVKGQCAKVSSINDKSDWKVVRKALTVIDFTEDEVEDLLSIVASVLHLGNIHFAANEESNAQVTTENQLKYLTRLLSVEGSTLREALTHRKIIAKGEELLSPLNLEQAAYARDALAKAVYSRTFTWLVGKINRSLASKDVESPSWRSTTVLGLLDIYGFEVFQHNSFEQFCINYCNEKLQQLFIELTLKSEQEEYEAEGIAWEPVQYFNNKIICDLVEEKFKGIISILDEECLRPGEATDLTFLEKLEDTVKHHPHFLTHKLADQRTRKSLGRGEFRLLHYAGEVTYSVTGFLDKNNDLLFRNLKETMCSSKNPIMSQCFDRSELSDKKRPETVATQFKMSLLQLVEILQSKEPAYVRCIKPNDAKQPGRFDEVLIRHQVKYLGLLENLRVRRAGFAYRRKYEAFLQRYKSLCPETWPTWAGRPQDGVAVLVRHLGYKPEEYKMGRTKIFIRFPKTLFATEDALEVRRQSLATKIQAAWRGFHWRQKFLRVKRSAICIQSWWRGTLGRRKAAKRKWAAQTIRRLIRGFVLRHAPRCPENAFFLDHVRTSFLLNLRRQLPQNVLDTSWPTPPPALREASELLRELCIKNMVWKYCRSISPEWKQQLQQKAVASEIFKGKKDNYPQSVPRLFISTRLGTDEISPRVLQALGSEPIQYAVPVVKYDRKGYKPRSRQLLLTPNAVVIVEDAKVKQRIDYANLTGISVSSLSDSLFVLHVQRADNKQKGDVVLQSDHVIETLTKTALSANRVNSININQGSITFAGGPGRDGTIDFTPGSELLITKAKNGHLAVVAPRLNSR
smiles,measurement,setting,value
CCCS(=O)(=O)Nc1cc(-c2cc(-c3ccc(N4CCNCC4)cc3)cnc2N)cc(F)c1OC [CSLP37],inhibitory activity against RIPK3,recombinant RIPK3,no inhibitory activity
CCCS(=O)(=O)Nc1cc(-c2cc(-c3ccc(N4CCNCC4)cc3)cnc2N)cc(OC)c1OC [CSLP43],inhibitory activity against RIPK3,recombinant RIPK3,no inhibitory activity
Cc1ccc(C(=O)Nc2ccc(CN3CCN(C)CC3)c(C(F)(F)F)c2)cc1C#Cc1cnc2cccnn12 [PON],Average LFQ PON_WT,"[1]; MYO1C, Unconventional myosin-Ic",21.7408
same,Average LFQ PON_WT,"[2]; COX4I1, Cytochrome c oxidase subunit 4 isoform 1, mitochondrial",21.5292
same,Average LFQ PON_WT,"[3]; DDOST, Dolichyl-diphosphooligosaccharide--protein glycosyltransferase 48 kDa subunit",22.9075
same,Average LFQ PON_WT,"[4]; CCT5, T-complex protein 1 subunit epsilon",22.2687
same,Average LFQ PON_WT,"[5]; RPS14, 40S ribosomal protein S14",22.2776
same,Average LFQ PON_WT,"[6]; HIST1H4A, Histone H4",22.1811
same,Average LFQ PON_WT,"[7]; EIF3C;EIF3CL, Eukaryotic translation initiation factor 3 subunit C",21.9967
"Cc1ccc(C(=O)Nc2ccc(CN3CCN(CCCN)CC3)c(C(F)(F)F)c2)cc1C#Cc1cnc2cccnn12 [c-ponatinib, reference compound]",Average LFQ intensity,"[1]; captured protein MYO1C, Rank 209",21.7408
same,Average LFQ intensity,"[2]; captured protein COX4I1, Rank 227",21.5292
same,Average LFQ intensity,"[3]; captured protein DDOST, Rank 129",22.9075
same,Average LFQ intensity,"[4]; captured protein CCT5, Rank 171",22.2687
same,Average LFQ intensity,"[5]; captured protein RPS14, Rank 169",22.2776
same,Average LFQ intensity,"[6]; captured protein HIST1H4A, Rank 180",22.1811
same,Average LFQ intensity,"[7]; captured protein EIF3C;EIF3CL, Rank 191",21.9967
